Data from EP0598753B1, “MANGANESE COMPLEXES OF NITROGEN-CONTAINING MACROCYCLIC LIGANDS EFFECTIVE AS CATALYSTS FOR DISMUTATING SUPEROXIDE” (MONSANTO COMPANY, priority 1991, dated 1993).

Key:
[1] = system: colonic myeloperoxidase activity; test: Mouse acetic acid-induced colitis model (colonic myeloperoxidase); type: in vivo; conditions: 30 mg/kg dose, intracolonic, 30 minutes before acetic acid, tissue after 24 hours
Experimental: Mouse colitis model. […] Mice were lightly anesthetized. A solution of 3% (v/v) aqueous acetic acid was instilled intracolonically via a flexible polyethylene tube. After 24 hours, the animals were killed and colonic tissue samples were obtained. Tissue samples were assessed biochemically for the neutrophil marker enzyme, myeloperoxidase (MPO). The colonic tissue samples were minced, homogenized in detergent, and sonicated. After centrifugation, enzyme activities were assayed spectrophotometrically by determining the decomposition of peroxide using o-dianisidine as the hydrogen donor. Data was obtained as the absorbance (460 nm) at 20 minutes. Test agents were given intracolonically at a dose of 30 mg/kg body weight 30 minutes before acetic acid instillation as a sonicated suspension in 0.5% aqueous methyl cellulose. Vehicle was given to appropriate acetic acid control animals. Normal tissue was obtained from control animals which received only vehicle. Colonic myeloperoxidase activities were determined as units/g wet weight of tissue. Reduction of colonic myeloperoxidase activity by test agents in acetic acid-treated mice is expressed as % inhibition (Table 2). Colonic myeloperoxidase activity correlated with the degree of tissue inflammation as assessed by visual and histological analysis.

[2] = system: human aortic endothelial cells (HAE cells)
Source text: (§1) Human peripheral blood neutrophils were isolated from fresh venous blood of healthy volunteers. EDTA anticoagulated blood was separated using a single step density centrifugation (Polymorphprep; Nycomed Pharma, Oslo, Norway) followed by several washes in Hank's balanced salt solution supplemented with 0.5% BSA (Bovine Serum Albumin) (HBSSB) and the hypertonic lysis of erythrocytes. Neutrophils were counted via Coulter electronic particle counter and resuspended in HBSSB supplemented with 25% Endothelial Basal Medium (EBM), (Clonetics Corporation, San Diego, CA) at a concentration of 5 x 10^6 polymorphonuclear leukocytes (PMN)/ml.
(§2) The cytotoxic effects of stimulated neutrophils on endothelial cells were determined using a ^51Cr-release assay as previously described (Moldow, C.F., and Jacob, H.S. (1984) Methods Enzymol. 105, 378-385). Confluent monolayers of human aortic endothelial cells (HAE cells; Clonetics) grown in 96-well culture plates were prelabeled with 1 µCi/well ^51Cr (Na2 ^51Cr2O4, New England Nuclear, Boston, MA). The cells were incubated for 18 h at 37°C, then cytokine-activated with 10 Units/well human recombinant tumor necrosis factor-a (hrTNF-α; Monsanto Company, St. Louis, MO) for 4 h at 37°C. The cells were washed twice to remove unincorporated radioactivity with Hank's balanced salt solution supplemented with 0.5% BSA. To assess inhibition of PMN-mediated cytotoxicity, manganese(II) complexes at various doses (0-300 µM) were added to five replicate wells/dose of HAE cells immediately prior to the addition of PMN. Suspensions of PMN in HBSSB supplemented with 25% Endothelial Basal Medium were added to the wells at a neutrophil to endothelial cell ratio of 50:1. The PMN were allowed to adhere for 15 minutes at 37°C, primed with 125 Units/well hrTNF-α (Berkow, R.L., Wang, D., Larrick, J.W., Dodson, R.W., and Howard, T.H. (1987) J. Immunol. 139, 3783-3791; Varani, J.; Bendelow, M. J. Sealey, D. E.; Kunkel, S. L.; Gannon, D. E.; Ryan, U.S.; and Ward, P.A. (1987) Lab. Invest., 59, 292-295) for 10 minutes, and stimulated with human recombinant complement component C5a (Sigma Chemical, St. Louis, MO). […] After an additional incubation of 4 hours at 37°C, 200 µl of the 250 µl reaction volume (soluble fraction) was removed to a tube for counting. The cells were washed twice with 200 µl HBSSB (nonadherent fraction) and the washes pooled with the soluble fraction. The adherent fraction was collected by lysing the HAE cells with 200 µl 1N NaOH for 30 minutes and removing to separate tubes. Both fractions were analyzed by gamma scintillation spectrometry. The percentage cytotoxicity was calculated by the following formula: % Cytotoxicity =(cpm (soluble + nonadherent fractions))/(cpm (soluble + nonadherent + adherent fractions))x 100 [formula] Specific cytotoxicity reflects the difference between ^51Cr-release induced by stimulated PMN and unstimulated PMN. The IC50 values for the manganese(II) complexes for protection against neutrophil-mediated cytotoxicity were determined from a computer-driven logistic regression equation from a plot of % specific cytotoxicity versus the concentration of the manganese(II) complex.

[3] = system: human aortic endothelial cells (HAE cells); test: Neutrophil-mediated cytotoxicity assay (51Cr-release); conditions: 50% inhibition of specific cytotoxicity; human neutrophil-mediated killing of human aortic endothelial cells
Source text: as §1, §2

[4] = Stopped-flow kinetic analysis of catalytic dismutation of superoxide; type: biochemical; conditions: catalytic rate constant for dismutation of superoxide, pH 8.1 and 21°C
Source text: Stopped-flow kinetic analysis is an accurate and direct method for quantitatively monitoring the decay rates of superoxide in water.
For the attainment of consistent and accurate measurements all reagents were biologically clean and metal-free. To achieve this, all buffers (Calbiochem) were biological grade, metal-free buffers and were handled with utensils which had been washed first with 0.1 N HCl, followed by purified water, followed by a rinse in a 10^-4 M EDTA bath at pH 8, followed by a rinse with purified water and dried at 65°C for several hours. Dry DMSO solutions of potassium superoxide (Aldrich) were prepared under a dry, inert atmosphere of argon in a Vacuum Atmospheres dry glovebox using dried glassware. The DMSO solutions were prepared immediately before every stopped-flow experiment. A mortar and pestle were used to grind the yellow solid potassium superoxide (~100 mg). The powder was then ground with a few drops of DMSO and the slurry transferred to a flask containing an additional 25 ml of DMSO. The resultant slurry was stirred for 1/2 h and then filtered. […] These solutions were transferred to a glovebag under nitrogen in sealed vials prior to loading the syringe under nitrogen. It should be noted that the DMSO/superoxide solutions are extremely sensitive to water, heat, air, and extraneous metals. A fresh, pure solution has a very slight yellowish tint.
Water for buffer solutions was delivered from an in-house deionized water system to a Barnstead Nanopure Ultrapure Series 550 water system and then double distilled, first from alkaline potassium permanganate and then from a dilute EDTA solution. For example, a solution containing 1.0 g of potassium permanganate, 2 liters of water and additional sodium hydroxide necessary to bring the pH to 9.0 were added to a […] fitted with a solvent distillation head. This distillation will oxidize any trace of organic compounds in the water. The final distillation was carried out under nitrogen in a 2.5-liter flask containing 1500 ml of water from the first still and 1.0 x 10^-6M EDTA. This step will remove remaining trace metals from the ultrapure water. To prevent EDTA mist from volatilizing over the reflux arm to the still head, the 40-cm vertical arm was packed with glass beads and wrapped with insulation. This system produces deoxygenated water that can be measured to have a conductivity of less than 2.0 nanomhos/cm^2.
The stopped-flow spectrometer system was designed and manufactured by Kinetic Instruments Inc. (Ann Arbor, MI) and was interfaced to a MAC IICX personal computer. The software for the stopped-flow analysis was provided by Kinetics Instrument Inc. and was written in QuickBasic with MacAdios drivers. Typical injector volumes (0.10 ml of buffer and 0.006 ml of DMSO) were calibrated so that a large excess of water over the DMSO solution were mixed together. […] Aqueous solutions to be mixed with the DMSO solution of superoxide were prepared using 80 mM concentrations of the Hepes buffer, pH 8.1 (free acid + Na form). One of the reservoir syringes was filled with 5 ml of the DMSO solution while the other was filled with 5 ml of the aqueous buffer solution. The entire injection block, mixer, and spectrometer cell were immersed in a thermostatted circulating water bath with a temperature of 21.0 ± 0.5°C.
Prior to initiating data collection for a superoxide decay, a baseline average was obtained by injecting several shots of the buffer and DMSO solutions into the mixing chamber. These shots were averaged and stored as the baseline.

| Molecule | % Inhibition of Colonic Myeloperoxidase Activity [1] [%] | protection against human neutrophil-mediated cytotoxicity, in words [2] | IC50 [3] [µM] | kCAT [4] [M⁻¹ s⁻¹] |
| --- | --- | --- | --- | --- |
| CC(C)CC1CNCCNCCNCCNCCN1.[Cl-].[Cl-].[Mn+2] (stereo not drawn) [Example 5, [Manganese(II)dichloro(2-(2-Methylpropyl)-1,4,7,10,13-pentaazacyclopentadecane)]] | 70 | protective against human neutrophil-mediated cytotoxicity | – | – |
| [Manganese(II)diacetate(1,4,7,10,13-Pentaazacyclopentadecane)] [Example 8] | 32 | protective against human neutrophil-mediated cytotoxicity | – | – |
| C1CCC(CC2CNCCNCCNCCNCCN2)CC1.[Cl-].[Cl-].[Mn+2] (stereo not drawn) [Example 7, [Manganese(II)dichloro(2-Cyclohexylmethyl-1,4,7,10,13-pentaazacyclopentadecane)]] | 77 | protective against human neutrophil-mediated cytotoxicity | 22 | – |
| C1CNCCNCCNCCNCCN1.F[P-](F)(F)(F)(F)F.[Cl][Mn+] [Example 27, [Manganese(II)chloro(1,4,7,10,13-Pentaazacyclopentadecane)]Hexafluorophosphate] | – | protective against human neutrophil-mediated cytotoxicity | 26 | 2.4e+07 |
| CC1CNCCNCCNCCNCCN1.[Cl-].[Cl-].[Mn+2] (stereo not drawn) [Example 2, [Manganese(II)dichloro(2-Methyl-1,4,7,10,13-pentaazacyclopentadecane)]] | 47 | protective against human neutrophil-mediated cytotoxicity | – | 2.67e+07 |
| [Manganese(II)dichloro((S)-2-Methyl-1,4,7,10,13-pentaazacyclopentadecane)] [Example 3] | 42 | protective against human neutrophil-mediated cytotoxicity | 37 | 2.39e+07 |
| [Cl-].[Cl-].[Mn+2].c1ccc(CC2CNCCNCCNCCNCCN2)cc1 (stereo not drawn) [Example 6, [Manganese(II)dichloro(2-Phenylmethyl-1,4,7,10,13-pentaazacyclopentadecane)]] | 48 | – | – | – |
